The values that follow come from patent US20230203043A1, “NOVEL IMIDAZOPYRAZINE DERIVATIVES” (Hoffmann-La Roche Inc., priority 2020, published 2023).

Molecules are shown by their SMILES. Where a name gives a salt, the structure may show the parent alone.

The IC90 is the point of the concentration-response curve where the effect stands at 90%.

One test concerns Acinetobacter baumannii ATCC17961. The test can be described thus: Antimicrobial susceptibility testing: 90% growth inhibitory concentration (IC90) determination in Iso-Sensitest broth, OD600 growth. The test is classed as cell-based. As to conditions: Acinetobacter baumannii, ATCC17961, 16 h, read-out: A. baumannii ATCC 17961 IC90 (uM), strain ATCC 17961, OD600 growth over 16 h. The method, then: Antimicrobial Susceptibility Testing:
90% Growth Inhibitory Concentration (IC90) Determination
The in vitro antimicrobial activity of the compounds was determined according to the following procedure:
The assay used a 10-points Iso-Sensitest broth medium to measure quantitatively the in vitro activity of the compounds against Acinetobacter baumannii ATCC17961 or ATCC17968.
Stock compounds in DMSO were serially twofold diluted (e.g. range from 50 to 0.097 μM final concentration) in 384 wells microtiter plates and inoculated with 49 μl the bacterial suspension in Iso-Sensitest medium to have a final cell concentration of ˜5×10^(5) CFU/ml in a final volume/well of 50 ul/well. Microtiter plates were incubated at 35±2° C.
Bacterial cell growth was determined with the measurement of optical density at λ=600 nm each 20 minutes over a time course of 16 h. Growth inhibition was calculated during the logarithmic growth of the bacterial cells with determination of the concentration inhibiting 50% (IC50) and 90% (IC90) of the growth.
Table 7 provides the 90% growth inhibitory concentrations (IC90) in micromoles per liter of the compounds of present invention obtained against the strain Acinetobacter baumannii ATCC17961 and/or ATCC17968.
`CCc1cc(Nc2nccn3c(-c4cn(C)nc4C(F)(F)F)cnc23)ccc1C(=O)NCCNC(=O)[C@@H]1C[C@](C)(O)CN1` [Example 447, (2S,4S)-N-[2-[[2-ethyl-4-[[3-[1-methyl-3-(trifluoromethyl)pyrazol-4-yl]imidazo[1,2-a]pyrazin-8-yl]amino]benzoyl]amino]ethyl]-4-hydroxy-4-methylpyrrolidine-2-carboxamide formate]: the concentration for an effect of 90% (IC90) is 4.19 µM.
The same measure, in the same setting: next, `CCc1cc(Nc2nccn3c(-c4cn(CC(F)F)nc4C(F)(F)F)cnc23)ccc1C(=O)N1CCC12CNC2` [Example 559, (4-((3-(1-(2,2-difluoroethyl)-3-(trifluoromethyl)-1H-pyrazol-4-yl)imidazo[1,2-a]pyrazin-8-yl)amino)-2-ethylphenyl)(1,6-diazaspiro[3.3]heptan-1-yl)methanone formate]: 0.398 µM; `CCc1cc(Nc2nccn3c(-c4cn(C(CO)CCl)nc4C(F)(F)F)cnc23)ccc1C(=O)NCCOCCN` (stereo not shown) [Example 278, N-[2-(2-aminoethoxy)ethyl]-4-[[3-[1-(1-chloro-3-hydroxypropan-2-yl)-3-(trifluoromethyl)pyrazol-4-yl]imidazo[1,2-a]pyrazin-8-yl]amino]-2-ethylbenzamide formate]: 0.332 µM; `O=C(c1ccc(Nc2nccn3c(-c4c[nH]nc4C(F)(F)F)cnc23)cc1Cl)N1CCN(C(=O)C2(O)CCNCC2)CC1` [Example 449, [2-chloro-4-[[3-[3-(trifluoromethyl)-1H-pyrazol-4-yl]imidazo[1,2-a]pyrazin-8-yl]amino]phenyl]-[4-(4-hydroxypiperidine-4-carbonyl)piperazin-1-yl]methanone formate]: 0.301 µM.
Still for that read-out and setting: for `COc1ccc(Cn2cc(-c3cnc4c(Nc5ccc(C(=O)N6CCNCC6)c(Cl)c5)nccn34)c(C(F)(F)F)n2)nn1` [Example 159, [2-chloro-4-[[3-[1-[(6-methoxypyridazin-3-yl)methyl]-3-(trifluoromethyl)pyrazol-4-yl]imidazo[1,2-a]pyrazin-8-yl]amino]phenyl]-piperazin-1-ylmethanone formate] the value was 0.408 µM; for `NCCNC(=O)CN1CCN(C(=O)c2ccc(Nc3nccn4c(-c5cn(CC(F)F)nc5C(F)(F)F)cnc34)cc2Cl)CC1` [Example 598, N-(2-aminoethyl)-2-(4-(2-chloro-4-((3-(1-(2,2-difluoroethyl)-3-(trifluoromethyl)-1H-pyrazol-4-yl)imidazo[1,2-a]pyrazin-8-yl)amino)benzoyl)piperazin-1-yl)acetamide formate], 0.359 µM.
As for `Cc1cc(Nc2nccn3c(-c4c[nH]nc4C(F)(F)F)cnc23)ccc1C(=O)N1CCN(C(=O)[C@H]2CCNC[C@H]2O)CC1` [Example 463, formic acid; [4-[(3S,4S)-3-hydroxypiperidine-4-carbonyl]piperazin-1-yl]-[2-methyl-4-[[3-[3-(trifluoromethyl)-1H-pyrazol-4-yl]imidazo[1,2-a]pyrazin-8-yl]amino]phenyl]methanone], the IC90 stood at 0.998 µM.
Still for that read-out and setting: for `N#CCn1cc(-c2cnc3c(Nc4ccc(C(=O)N5CCN(CC(=O)N6CCNCC6)CC5)c(Cl)c4)nccn23)c(C(F)(F)F)n1` [Example 607, 2-(4-(8-((3-chloro-4-(4-(2-oxo-2-(piperazin-1-yl)ethyl)piperazine-1-carbonyl)phenyl)amino)imidazo[1,2-a]pyrazin-3-yl)-3-(trifluoromethyl)-1H-pyrazol-1-yl)acetonitrile formate] the value was 0.878 µM; for `CCc1cc(Nc2nccn3c(-c4c[nH]nc4C(F)(F)F)cnc23)ccc1C(=O)NCC(=O)N1CCC(N)CC1` [Example 756, N-[2-(4-amino-1-piperidyl)-2-oxo-ethyl]-2-ethyl-4-[[3-[3-(trifluoromethyl)-1H-pyrazol-4-yl]imidazo[1,2-a]pyrazin-8-yl]amino]benzamide formate], 0.679 µM.

The test is the same for the next values; noted with them: Acinetobacter baumannii, ATCC17961, 16 h, strain ATCC 17961, OD600 growth over 16 h, read-out: A. baumannii ATCC 17961 IC90.
With `CCc1cc(Nc2nccn3c(-c4cn(CC#N)nc4C(F)(F)F)cnc23)ccc1C(=O)NCC#N` [Example 251, N-(cyanomethyl)-4-[[3-[1-(cyanomethyl)-3-(trifluoromethyl)pyrazol-4-yl]imidazo[1,2-a]pyrazin-8-yl]amino]-2-ethylbenzamide], the IC90 was found to be 0.136 µM.
Same read-out and setting: next, `N#CCn1cc(-c2cnc3c(Nc4ccc(C(=O)NC56CC(N)(C5)C6)c(Cl)c4)nccn23)c(C(F)(F)F)n1` [Example 88, N-(3-amino-1-bicyclo[1.1.1]pentanyl)-2-chloro-4-[[3-[1-(cyanomethyl)-3-(trifluoromethyl)pyrazol-4-yl]imidazo[1,2-a]pyrazin-8-yl]amino]benzamide]: 0.431 µM.
On the same count and under the same terms, next, `CCc1cc(Nc2nccn3c(-c4cn(CC(F)F)nc4C(F)(F)F)cnc23)ccc1C(=O)NCCOCCN1CCCC1` [Example 621, 4-((3-(1-(2,2-difluoroethyl)-3-(trifluoromethyl)-1H-pyrazol-4-yl)imidazo[1,2-a]pyrazin-8-yl)amino)-2-ethyl-N-(2-(2-(pyrrolidin-1-yl)ethoxy)ethyl) benzamide formate]: 0.144 µM.
On the same count and under the same terms, next, `CCc1cc(Nc2nccn3c(-c4cn(CC#N)nc4C(F)(F)F)cnc23)ccc1C(=O)NCCNC(=O)[C@H]1CC[C@H](N)C1` [Example 491, N-(2-((1S,3S)-3-aminocyclopentane-1-carboxamido)ethyl)-4-((3-(1-(cyanomethyl)-3-(trifluoromethyl)-1H-pyrazol-4-yl)imidazo[1,2-a]pyrazin-8-yl)amino)-2-ethylbenzamide formate]: 0.195 µM; `O=C(NC1CN(C(=O)[C@@H]2C[C@@H](O)CN2)C1)c1ccc(Nc2nccn3c(-c4c[nH]nc4C(F)(F)F)cnc23)cc1Cl` [Example 371, 2-chloro-N-[1-[(2S,4R)-4-hydroxypyrrolidine-2-carbonyl]azetidin-3-yl]-4-[[3-[3-(trifluoromethyl)-1H-pyrazol-4-yl]imidazo[1,2-a]pyrazin-8-yl]amino]benzamide]: 0.309 µM.
On to `CCc1cc(Nc2nccn3c(-c4cn(CC(F)F)nc4C(F)(F)F)cnc23)ccc1C(=O)NCC(=O)N[C@@H]1CCNC1` [Example 648, 4-[[3-[1-(2,2-difluoroethyl)-3-(trifluoromethyl)pyrazol-4-yl]imidazo[1,2-a]pyrazin-8-yl]amino]-2-ethyl-N-[2-oxo-2-[[(3R)-pyrrolidin-3-yl]amino]ethyl] benzamide formate], for which the IC90 worked out at 0.246 µM.
The same measure, in the same setting: for `CCc1cc(Nc2nccn3c(-c4cn(CC(F)F)nc4C(F)(F)F)cnc23)ccc1C(=O)NCC(=O)NCCN` [Example 729, N-[2-(2-aminoethylamino)-2-oxo-ethyl]-4-[[3-[1-(2,2-difluoroethyl)-3-(trifluoromethyl)pyrazol-4-yl]imidazo[1,2-a]pyrazin-8-yl]amino]-2-ethyl-benzamide] the value was 0.473 µM; for `O=C(NC1CCC(NC(=O)[C@@H]2C[C@@H](O)CN2)CC1)c1ccc(Nc2nccn3c(-c4c[nH]nc4C(F)(F)F)cnc23)cc1Cl` (stereo partly drawn) [Example 374, (2S,4R)-N-[4-[[2-chloro-4-[[3-[3-(trifluoromethyl)-1H-pyrazol-4-yl]imidazo[1,2-a]pyrazin-8-yl]amino]benzoyl]amino]cyclohexyl]-4-hydroxypyrrolidine-2-carboxamide], 0.237 µM; for `O=C(c1ccc(Nc2nccn3c(-c4cn(CC(F)F)nc4C(F)(F)F)cnc23)cc1Cl)N1CC2(C1)CN(C(=O)[C@@H]1CCCN1)C2` [Example 635, (S)-(2-chloro-4-((3-(1-(2,2-difluoroethyl)-3-(trifluoromethyl)-1H-pyrazol-4-yl)imidazo[1,2-a]pyrazin-8-yl)amino)phenyl)(6-prolyl-2,6-diazaspiro [3.3]heptan-2-yl)methanone], 0.22 µM.
Consider `N#CCn1cc(-c2cnc3c(Nc4ccc(C(=O)N5CCC(NC(=O)[C@@H]6C[C@@H](O)CN6)CC5)c(Cl)c4)nccn23)c(C(F)(F)F)n1` [Example 143, (2S,4R)-N-[1-[2-chloro-4-[[3-[1-(cyanomethyl)-3-(trifluoromethyl)pyrazol-4-yl]imidazo[1,2-a]pyrazin-8-yl]amino]benzoyl]piperidin-4-yl]-4-hydroxypyrrolidine-2-carboxamide], for which the IC90 was 0.555 µM.
As to `N#CCn1cc(-c2cnc3c(Nc4ccc(C(=O)N5CC(NC(=O)[C@@H]6C[C@@H](O)CN6)C5)c(Cl)c4)nccn23)c(C(F)(F)F)n1` [Example 173, (2S,4R)-N-[1-[2-chloro-4-[[3-[1-(cyanomethyl)-3-(trifluoromethyl)pyrazol-4-yl]imidazo[1,2-a]pyrazin-8-yl]amino]benzoyl]azetidin-3-yl]-4-hydroxypyrrolidine-2-carboxamide], the IC90 came out at 1.11 µM.
Same read-out and setting: for `CCc1cc(Nc2nccn3c(-c4cn(CC#N)nc4C(F)(F)F)cnc23)ccc1C(=O)NC` [Example 341, 4-[[3-[1-(cyanomethyl)-3-(trifluoromethyl)pyrazol-4-yl]imidazo[1,2-a]pyrazin-8-yl]amino]-2-ethyl-N-methylbenzamide] the value was 0.223 µM; for `NC1CCC(NC(=O)c2ccc(Nc3nccn4c(-c5c[nH]nc5C(F)(F)F)cnc34)cc2Cl)CC1` (stereo not shown) [Example 385, N-(4-aminocyclohexyl)-2-chloro-4-[[3-[3-(trifluoromethyl)-1H-pyrazol-4-yl]imidazo[1,2-a]pyrazin-8-yl]amino]benzamide], 0.969 µM.
